Source: article PMC5384453, “A multi-functional PEGylated gold(III) compound: potent anti-cancer properties and self-assembly into nanostructures for drug co-delivery” (Chemical Science, 2016)

What was measured:
HCT116 xenografts = test: In vivo inhibition of tumor growth in nude mice bearing HCT116 xenograft; conditions: for reduction of tumor volume / reduction of tumor weight: n = 8
Text: The anti-tumor experiments using mice were approved by the animal ethics committees of Jinan University and The University of Hong Kong.
Significant pulmonary hemorrhage in the alveoli and a thickening of alveolar walls were found. Also, apoptotic hepatocytes and swollen renal epithelial cells were found, leading to subsequent shrinkage of kidney tubules. […] The lower systemic toxicity of 1 can be explained by the lower accumulation of 1 in the organs of mice treated at its effective dosage, as compared to that of 3 and Au1a (Fig. S23 ^†). […] This can be attributable to the nanostructures of 1, which may lead to in vivo tumor accumulation by the EPR effect.[55] […]
atmosphere of 5% CO2. […]
(§1) right fore of BALB/c nude mice. When the tumor volume reached 70 mm3 after […]
every 2 days for 24 days. The control group received equal volume of PBS only.
During the treatment period, the tumor volume and body weight of the nude mice were measured per two days. The tumor volume was calculated by the equation:
Volume (mm3) = l×w2/2, where l and w were the length and width of the tumor. At the end of the treatment, the nude mice were sacrificed and the tumor weight was […]
H&E staining and immunohistochemical (IHC) analysis of mice tissues. For histological and immunohistochemical analysis, the tissues were fixed with 3.7% formaldehyde, embedded with paraffin and sectioned. Subsequently, the tissues were stained with hematoxylin and eosin for histological observation under an optical microscope (magnification: 10×). The expression of p53, Ki67, VEGFR2 and TUNEL was determined by IHC methods as reported previously. S7
Hematological analysis of nude mice bearing HCT116 xenograft. The blood samples of mice without bearing HCT116 xenograft and xenograft-bearing mice treated with 1, 3 and PBS control were collected. The plasma was obtained by centrifuging the blood sample with speed at 3000 rpm. The plasma was then subjected to hematological analysis to determine biochemical indexes of alanine aminotransferase (ALT), asparatate aminotransferase (AST), globulin (GLB), blood urea nitrogen (BUN), uric acid (UA), creatinine (CREA), lactate dehydrogenase (LDH) and creatine kinase (CK) in blood of the mice. […]

[1] = Zeta potential measurement of nanostructures in PBS; format: physicochemical
Text: On the other hand, the almost neutral zeta potentials of the nanostructures of 1 and 2 validated the presence of PEG pendant in the shell of the nanostructures. The identity of gold species in the core of the nanostructures was supported by the good contrast of the core in the TEM images (Fig. 1c and S3a ^†) and energy-dispersive X-ray (EDX) spectra (Fig. 1f). […]
(MIHA), human normal liver cells (L02) and human normal gliocyte cells (CHEM-5) were maintained in Dulbecco’s modified Eagle’s medium with 10 vol% fetal bovine serum, ʟ-glutamine (2 mM) and penicillin/streptomycin (100 U/mL). […]
TOF/TOF™ Analyzer using α-cyano-4-hydroxycinnamic acid with sodium trifluoroacetate as the matrix. […]
Premier quadrupole time-of-flight tandem mass spectrometer. […]
Ultra performance […]
liquid chromatography (UPLC) measurements were performed on a Waters
ACQUITY UPLC H-Class System equipped with a photodiode array for detection.
Elemental analyses were performed on the Carlo Erba 1106 elemental analyzer at the Institute of Chemistry, Chinese Academy of Sciences, Beijing, China. […]
Dynamic light scattering (DLS) and zeta potential measurements were performed

HCT116 cells = test: Co-culture model of HCT116 and NCM460, Caspase-3/7 Green flow cytometry; format: cell-based, human; conditions: 24 h; for population percentage of apoptotic cells (Caspase-3/7 Green, corrected): HCT116 in co-culture with CMF2HC-stained NCM460, 2 μM
Procedure: (§2) This co-culture model treated with 1 for 24 h had 25.04 and 5.01% (Q2 and Q3 regions of Fig. S21a ^†; corrected) of HCT116 and NCM460 cells, respectively, undergoing apoptosis as determined by Caspase-3/7 Green Reagent staining and flow cytometric analysis (Fig. S21 ^†). This confirms the preferential induction of apoptosis by 1 of HCT116 cells over NCM460 cells in the co-culture model, regardless of the effect, if any, of the blue emissive CMF2HC dye.
(§3) atmosphere of 5% CO2. After reaching 80% confluency, the culture medium was
(§4) of 5% CO2 for 45 min. The solution was then removed. The stained NCM460 cells
(§5) the procedure described above.
as §1

NCM460 cells [2] = test: as above; format: cell-based, human; conditions: 24 h; for population percentage of apoptotic cells (Caspase-3/7 Green, corrected): CMF2HC-stained NCM460 in co-culture with HCT116, 2 μM
Procedure: as §2, §3, §4, §5, §1

NCM460 cells [3] = test: Time-dependent induction of apoptosis, Caspase-3/7 Green ReadyProbes fluorescence microscopy; format: cell-based, human; conditions: NCM460, 2 μM, Caspase-3/7 Green Reagent
Procedure: B from 20.1 to 25 min and returned to initial conditions and equilibrated for 3 minutes.
The flow rate was 0.4 mL/min and the injection volume was 2 µL. The UPLC-QTOF-MS chromatograms of 1, 3, 4 and solvent control in acetonitrile were also recorded for the interpretation of UPLC-QTOF-MS chromatograms of the cell lysate.
Cellular uptake experiments. HCT116, A2780 and A2780adr (2×10 5 cells), and MIHA and NCM460 (3.5×10 5 cells) cells were grown on 6-well plates at 37 °C under an atmosphere of 5% CO2 for 48 h. The culture medium was then removed, washed with PBS solution, and incubated with culture medium containing nanostructures of 1 […]
Au1a (2 µM; with 1 vol% DMSO). At a predetermined time, the culture medium was removed and washed with PBS solution for three times. […] An aliquot of the cell suspension was subjected to Bio-rad protein assay with a microtitre plate reader at the absorbance at 595 nm, using bovine serum albumin as the protein standard. […] The solution mixture was heated at 65 °C with shaking overnight, and the gold content was determined by ICP-MS. […]
then removed and washed with PBS solution. The cells were then incubated with culture medium containing nanostructures of 1 (2 µM) and CellEvent Caspase-3/7 Green ReadyProbes Reagent (30 µL), or Au1a (2 µM; with 1 vol% DMSO) and CellEvent Caspase-3/7 Green ReadyProbes Reagent (30 µL) at 37 °C under an atmosphere of 5% CO2. […]

[4] = 4 mg kg^–1, intravenous injection every two days for 24 days
[5] = 2 mg kg^–1, intravenous injection every two days for 24 days

Row | Compound | reduction of tumor volume (HCT116 xenografts; [4]) [%] | reduction of tumor weight (HCT116 xenografts; [4]) [%] | Zeta potential [1] | population percentage of apoptotic cells (Caspase-3/7 Green, corrected) (HCT116 cells) [%] | cells undergoing apoptosis (Caspase-3/7 Green, corrected) (HCT116 cells; co-culture with HCT116 pre-treated with CMF2HC dye, HCT116 cells) [%] | population percentage of apoptotic cells (Caspase-3/7 Green, corrected) (NCM460 cells [2]) [%] | cells undergoing apoptosis (Caspase-3/7 Green, corrected) (NCM460 cells [2]; co-culture with HCT116 pre-treated with CMF2HC dye, NCM460 cells) [%] | reduction of tumor volume (HCT116 xenografts; [5]) [%] | reduction of tumor weight (HCT116 xenografts; [5]) [%] | nuclear atypia and mitosis in tumor sections (immunohistochemical analysis) (HCT116 xenografts; 4 mg kg^–1 i.v., 24 days) | incubation time at which induction of apoptosis was apparent (NCM460 cells [3])
1 | COC(=O)c1ccc(C2=C3C=CC(=N3)C(c3ccccc3)=c3ccc4[n]3[Au+][n]3c(ccc32)C(c2ccccc2)=C2C=CC(=N2)C=4c2ccccc2)cc1.[Cl-] [Compound 3, [Au(TPP–COOCH3)]^+] | 56 | 49 | – | – | – | – | – | – | – | – | –
2 | [Au(TPP–COO–PEG5000–OCH3)]Cl [Compound 1] | 58 | 53 | –0.1 ± 1.6 mV | 25.3 | 25.04 | 4.1 | 5.01 | 41 | 35 | Effective elimination of nuclear atypia and mitosis were observed | no significant apoptosis
3 | [Au(TPP–CONH–PEG5000–OCH3)]Cl [Compound 2] | – | – | –0.7 ± 4.2 mV | – | – | – | – | – | – | – | –
4 | C1=Cc2nc1c(-c1ccccc1)c1ccc([n-]1)c(-c1ccccc1)c1nc(c(-c3ccccc3)c3ccc([n-]3)c2-c2ccccc2)C=C1.[Au+3].[Cl-] [Au1a, [Au(TPP)]Cl, reference compound] | – | – | – | 54.6 | – | 29.3 | – | – | – | – | 20 h
